Measured values reported in patent US9808448B2, “Pharmaceutical compounds and use of same in cancer and tauopathies” (THE REGENTS OF THE UNIVERSITY OF MICHIGAN, priority 2013, dated 2017).
“Also recorded” adds a separate entry of the source.

Test system: total and phospho-tau in wild type brain slices
Experiment: Tau levels in wild type brain slice cultures
Type: cell-based, mouse
Protocol: YM-08 activity in a more physiological system was tested. Brain slice cultures from transgenic mice that express mutated tau were treated for 6 hours with YM-08 and the levels of total- and pS396/404 tau measured by Western blots. […] To test whether YM-08 might selectively reduce tau after microtubule disruption, brain slices were cultured from wild type mice and treated them with YM-08 plus the microtubule destabilizer, nocodazole. […] Together, these studies add to growing evidence that Hsp70 selectively identifies tau variants that are not associated with the normal microtubule network, likely minimizing their aggregation and proteotoxicity.

CCn1c(=O)/c(=C2\Sc3ccccc3N2C)s/c1=C\c1ccccn1 [YM-08, (2Z,5E)-3-ethyl-5-(3-methylbenzo[d]thiazol-2(3H)-ylidene)-2-(pyridin-2-ylmethylene)thiazolidin-4-one]
tau levels, YM-08 alone: unchanged; also recorded: did not significantly reduce tau levels | total and phospho-tau levels, plus nocodazole (microtubule disruption): decreased levels of both total and phospho-tau
